By IC50 is commonly meant the midpoint of a concentration-inhibition curve. Higher therefore signals lower potency.

Here are results for 8 molecules from BindingDB's records for doi:10.1016/s0960-894x(01)00405-x (Glaxosmithkline, 2001).

For this assay, the target named is T1, Enoyl-[acyl-carrier-protein] reductase [NADPH] FabI (Staphylococcus aureus (strain MRSA252), UniProt Q6GI75).
T1 sequence (Q6GI75 whole entry): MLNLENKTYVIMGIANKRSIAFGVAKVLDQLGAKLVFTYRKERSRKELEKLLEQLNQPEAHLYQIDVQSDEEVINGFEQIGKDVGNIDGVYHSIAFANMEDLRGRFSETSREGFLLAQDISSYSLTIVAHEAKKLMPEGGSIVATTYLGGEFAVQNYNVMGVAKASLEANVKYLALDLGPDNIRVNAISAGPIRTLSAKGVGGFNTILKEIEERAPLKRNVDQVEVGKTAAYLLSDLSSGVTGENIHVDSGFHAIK
The experiment in a line: Enzyme Inhibition Assay. Conditions: pH 6.5; 30 °C. The procedure:
Assays were carried out in half-area, 96-well microtiter plates. Compounds were evaluated in assay mixtures containing components specific for each enzyme. Inhibitors were varied over the range 0.01-10 uM. The consumption of NAD(P)H was monitored for 20 min at 30 °C by following the change in absorbance at 340 nm. IC50 values were estimated from a fit of the initial velocities to a standard equation.
In turn, `CN1Cc2cc(C(=O)N3CCc4c([nH]c5ccccc45)C3)ccc2NC(CC(=O)O)C1=O` (stereo not drawn) [2-(4-methyl-3-oxo-7-{1H,2H,3H,4H,9H-pyrido[3,4-b]indol-2-ylcarbonyl}-2,3,4,5-tetrahydro-1H-1,4-benzodiazepin-2-yl)acetic acid] displayed an IC50 of 7.8 µM.
`O=C(c1ccccc1)N1CCc2c([nH]c3ccccc23)C1` [2-benzoyl-1H,2H,3H,4H,9H-pyrido[3,4-b]indole]: the IC50 is 2.7 µM.
With `O=C(c1ccc(O)cc1)N1CCc2c(n(Cc3cccc(O)c3)c3ccccc23)C1` [4-({9-[(3-hydroxyphenyl)methyl]-1H,2H,3H,4H,9H-pyrido[3,4-b]indol-2-yl}carbonyl)phenol], inhibition was half-maximal at 0.42 µM (IC50).
As for `O=C(c1ccc(O)cc1)N1CCc2c(n(Cc3ccccc3)c3ccccc23)C1` [4-({9-benzyl-1H,2H,3H,4H,9H-pyrido[3,4-b]indol-2-yl}carbonyl)phenol], the figure is 1.3 µM; as for `Cn1c2c(c3ccccc31)CCN(C(=O)c1ccc(O)cc1)C2` [4-({9-methyl-1H,2H,3H,4H,9H-pyrido[3,4-b]indol-2-yl}carbonyl)phenol], 1.4 µM.
The result for `O=C(c1ccc(O)cc1)N1CCc2c([nH]c3ccccc23)C1` [4-{1H,2H,3H,4H,9H-pyrido[3,4-b]indol-2-ylcarbonyl}phenol] reads 1.4 µM.
In turn, `COC(=O)Cn1c2c(c3ccccc31)CCN(C(=O)c1ccc(O)cc1)C2` [methyl 2-{2-[(4-hydroxyphenyl)carbonyl]-1H,2H,3H,4H,9H-pyrido[3,4-b]indol-9-yl}acetate] gave an IC50 of 9.8 µM.
The result for `COC(=O)CCCCn1c2c(c3ccccc31)CCN(C(=O)c1ccc(O)cc1)C2` [methyl 5-{2-[(4-hydroxyphenyl)carbonyl]-1H,2H,3H,4H,9H-pyrido[3,4-b]indol-9-yl}pentanoate] reads 4.6 µM.
